From article PMC6767234, “Effects of the Ethanol Extract of Dipterocarpus alatus Leaf on the Unpredictable Chronic Mild Stress-Induced Depression in ICR Mice and Its Possible Mechanism of Action” (Molecules, 2019)
Structures can show the parent of a compound that is named as a salt.

What was measured:
recombinant human MAO-A = target: T1, recombinant human MAO-A (Homo sapiens, UniProt P21397); details: read-out: Km for the oxidation of kynuramine by MAO-A; cited from earlier work
T1 sequence (P21397 1-527): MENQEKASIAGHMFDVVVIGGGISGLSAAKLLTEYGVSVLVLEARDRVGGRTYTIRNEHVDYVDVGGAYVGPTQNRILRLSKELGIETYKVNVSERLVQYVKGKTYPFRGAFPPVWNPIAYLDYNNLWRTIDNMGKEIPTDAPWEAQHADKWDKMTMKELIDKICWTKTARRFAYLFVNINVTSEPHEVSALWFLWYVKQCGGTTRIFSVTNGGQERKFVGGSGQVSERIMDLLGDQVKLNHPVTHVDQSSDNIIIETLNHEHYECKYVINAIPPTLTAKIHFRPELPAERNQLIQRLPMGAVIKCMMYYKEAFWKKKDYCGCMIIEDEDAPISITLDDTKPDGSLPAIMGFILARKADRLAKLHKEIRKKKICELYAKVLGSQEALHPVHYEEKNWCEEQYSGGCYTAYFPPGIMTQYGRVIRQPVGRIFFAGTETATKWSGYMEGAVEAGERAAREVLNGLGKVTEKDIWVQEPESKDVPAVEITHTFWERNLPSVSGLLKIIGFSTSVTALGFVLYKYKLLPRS

recombinant human MAO-B = target: T2, recombinant human MAO-B (Homo sapiens, UniProt P27338); details: read-out: Km for the oxidation of kynuramine by MAO-B; cited from earlier work
T2 sequence (P27338 1-520): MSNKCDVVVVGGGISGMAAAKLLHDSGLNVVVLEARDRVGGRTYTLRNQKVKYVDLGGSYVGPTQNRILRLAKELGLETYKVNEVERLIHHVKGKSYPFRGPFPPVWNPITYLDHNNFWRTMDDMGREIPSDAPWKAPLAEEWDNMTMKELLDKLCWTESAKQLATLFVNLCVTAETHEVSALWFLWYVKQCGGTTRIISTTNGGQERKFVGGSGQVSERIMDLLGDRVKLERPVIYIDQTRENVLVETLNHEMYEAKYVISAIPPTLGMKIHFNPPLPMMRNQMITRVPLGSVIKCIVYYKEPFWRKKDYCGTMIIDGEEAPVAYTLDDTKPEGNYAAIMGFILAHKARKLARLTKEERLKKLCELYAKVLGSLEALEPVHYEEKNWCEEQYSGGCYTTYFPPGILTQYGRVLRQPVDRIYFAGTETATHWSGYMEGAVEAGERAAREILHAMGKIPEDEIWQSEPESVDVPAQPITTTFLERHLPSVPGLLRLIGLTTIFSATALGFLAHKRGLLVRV

mice = details: cited from earlier work
UCMS mice [1] = assay: Sucrose preference test (anhedonia) in UCMS mice; type: in vivo, ICR mice; details: IMP 20 mg/kg i.p. daily, 5th week, vs vehicle-treated UCMS group
Experimental: (§1) UCMS procedures were used to induce the depressive-like behaviors in mice as previously described by Mizuki et al., with minor modification. Briefly, in week 0, the animals were first trained to consume a 2% sucrose solution for a 48-h period in their home cages with no food or water. After this training, the animals were deprived of water and food for 18 h, and then sucrose solution was given for 1 h per day for 5 consecutive days in order to group the mice and determine the baseline sucrose consumption. The animals were randomly divided into 5 groups: a non-stressed control group and 4 other groups subjected to UCMS for 5 weeks. The UCMS procedures consisted of a variety of unpredictable mild stressors, including two periods of cage tilting at 45° (12 h), two periods of restricted access to food (5 micropellets, 1 h), two periods of exposure to an empty bottle (3 h), one 21 h-period of a wet cage (200 mL of water in 100 g of sawdust bedding), two periods of light exposure (36 h), two periods of intermittent sound (a cat singing sound) (3 and 5 h), two periods of paired caging (2 h), and food and water deprivation for 18 h before the measurement of 2% sucrose solution consumption. […]
The sucrose preference test was used to assess the anhedonic-like behavior. […] The amounts of 2% (w/v) sucrose solution were recorded. […]

BDNF mRNA = assay: QPCR of BDNF mRNA in frontal cortex and hippocampus of UCMS mice; type: in vivo, ICR mice; details: LE 100 and 500 mg/kg p.o., IMP 20 mg/kg i.p.
Experimental: (§2) UCMS procedures were used to induce the depressive-like behaviors in mice as previously described by Mizuki et al., with minor modification. Briefly, in week 0, the animals were first trained to consume a 2% sucrose solution for a 48-h period in their home cages with no food or water. After this training, the animals were deprived of water and food for 18 h, and then sucrose solution was given for 1 h per day for 5 consecutive days in order to group the mice and determine the baseline sucrose consumption. The animals were randomly divided into 5 groups: a non-stressed control group and 4 other groups subjected to UCMS for 5 weeks. […]
(§3) Mouse serum/glucocorticoid-regulated kinase 1 (SGK1), cyclic AMP response element binding protein (CREB), brain-derived neurotrophic factor (BDNF), mRNAs expression in hippocampus and frontal cortex were quantified by real time PCR. […] Fold difference relative expressions were calculated.

SGK1 mRNA = assay: QPCR of SGK1 mRNA in frontal cortex and hippocampus of UCMS mice; type: in vivo, ICR mice; details: LE 100 and 500 mg/kg p.o. (dose-dependent), IMP 20 mg/kg i.p.
Experimental: as §2, §3

[2] = tested on: serum corticosterone (CORT); assay: Serum corticosterone (CORT) ELISA in UCMS mice; type: in vivo, ICR mice; details: imipramine 20 mg/kg/day, LE 100–500 mg/kg/day for 3 weeks, vs vehicle-treated UCMS group
Experimental: as §2
After completing the behavioral analysis, blood was collected via cardiac puncture under anesthesia with pentobarbital sodium as anesthetic drug (Nembutal®: 60 mg/kg i.p.; Ceva Sante Animale, Libourne, France). […] The absorbance was immediately determined at 450 nm.

UCMS mice [3] = assay: Forced swimming test (FST) in UCMS mice; type: in vivo, ICR mice; details: LE 100 and 500 mg/kg p.o. (dose-dependent), IMP 20 mg/kg i.p., vs vehicle-treated UCMS group
Experimental: as §1
Forced swimming test (FST) is one of the most commonly used animal models for assessing antidepressant-like behavior. […] The immobility time was recorded during 5 min.

UCMS mice [4] = assay: Tail suspension test (TST) in UCMS mice; type: in vivo, ICR mice; details: LE 100 and 500 mg/kg p.o. (dose-dependent), IMP 20 mg/kg i.p., vs vehicle-treated UCMS group
Experimental: as §2
Each mouse was suspended upside down in the tail suspension test box, which leads to characteristic behavior immobility. […] Immobility duration was recorded for the last 4 min, during a 6-min observation period. […]

UCMS mice [5] = assay: Locomotor activity in the Y-maze task in UCMS mice; type: in vivo, ICR mice; details: LE 100 and 500 mg/kg p.o., IMP 20 mg/kg i.p.
Experimental: as §2
In order to exclude false positive results from drug-induced hyperlocomotion in hopeless behavioral tests, locomotor activity was determined by evaluation of mice movement. […] One hour after drug administration, the mice were individually placed on one arm, and the total arm entries were recorded manually over 8 min-period for measuring the locomotion activity.

CREB mRNA = assay: QPCR of CREB mRNA in frontal cortex and hippocampus of UCMS mice; type: in vivo, ICR mice; details: LE 100 and 500 mg/kg p.o., IMP 20 mg/kg i.p.
Experimental: as §2, §3

ICR mice = tested on: ICR mice; parameters: method as in PMID 31394019; details: oral, 5 mg/kg for 7 days, vs vehicle-administered control group; cited from earlier work
UCMS = tested on: UCMS; parameters: method as in PMID 28732760; details: cited from earlier work

SMILES: NCCC(=O)c1ccccc1N [kynuramine]
- Km (recombinant human MAO-A): 16.1 µM
- Km (recombinant human MAO-B): 22.7 µM

SMILES: O=c1cc(-c2ccc(O)c(O)c2)oc2cc(O)cc(O)c12 [luteolin]
- effect in FST and TST (mice; oral administration, 50 mg/kg): antidepressant effects

SMILES: O=c1c(O)c(-c2ccc(O)cc2)oc2cc(O)cc(O)c12 [Kaemferol]
- immobility time in FST and TST (mice; stress-induced mice compared with unstressed mice): reducing the immobility time

SMILES: CN(C)CCCN1c2ccccc2CCc2ccccc21 [imipramine, imipramine hydrochloride]
- 2% sucrose intake (UCMS mice [1]): significant increase
- expression of BDNF mRNA (BDNF mRNA): normalized the down-regulated expression
- mRNA expression of SGK1 (SGK1 mRNA): markedly decreased
- UCMS-induced elevation in serum CORT levels [2]: significantly suppressed
- immobility time in FST (UCMS mice [3]): significantly decreased the immobility time
- immobility time in TST (UCMS mice [4]): significantly decreased the immobility time
- locomotor activity (number of arm entries, Y-maze) (UCMS mice [5]): neither imipramine (IMP) nor the ethanol extract of D. alatus leaf improved the locomotor activity
- expression of CREB mRNA (CREB mRNA): normalized the down-regulated expression

SMILES: COc1cc(/C=C/C(=O)O)ccc1O [ferulic acid]
- immobility (ICR mice): significantly reduced immobility

SMILES: C[C@@H]1O[C@@H](OC[C@H]2O[C@@H](Oc3c(-c4ccc(O)c(O)c4)oc4cc(O)cc(O)c4c3=O)[C@H](O)[C@@H](O)[C@@H]2O)[C@H](O)[C@H](O)[C@H]1O [Rutin, quercetin-3-rutinoside]
- UCMS-induced behavioral deficits (UCMS): efficiently rescued the UCMS-induced behavioral deficits
